Data from PubChem BioAssay AID2060897 (Molecular Pharmacology Branch, DTP, NCI, 2025).
Each block holds one compound with its values, some of them ahead of it.

Tested on: 966289-007-R4-J1-PDC complex spheroid viability
Experiment: Anticancer human tumor 966289-007-R4-J1-PDC patient-derived pancreatic adenocarcinoma cell line growth inhibition [RAS]
Conditions: for IC50: curve of first compound; for viability, T/C: stronger effect = lower value
In short: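 Agents were tested in combination matrices in half-log decrements from a top concentration at or near clinical Cmax (10 microM if undetermined). Targets were multi-cell spheroids of tumour lines plus HUVEC and MSC stromal cells.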
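Note: spheroids exposed to agents for one week before readout.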
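Throughout, for viability, T/C: percent viability relative to DMSO vehicle control wells as 100%.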

- IC50 (second compound 0.00316 µM): 1.5 nM
- IC50 (second compound 0.01 µM): 1.38 nM
- IC50 (second compound 0.0316 µM): 1.34 nM
- IC50 (second compound 0.1 µM): 1.22 nM
- IC50 (second compound 0.316 µM): 1.31 nM
- IC50 (second compound 1 µM): 1.12 nM
Structure (SMILES): CCc1c2c(nc3ccc(O)cc13)-c1cc3c(c(=O)n1C2)COC(=O)[C@]3(O)CC + C=CC(=O)N1CCN(c2nc(OCC3CCCN3C)nc3c(F)c(-c4nc(N)cc(C)c4C(F)(F)F)c(Cl)cc23)C(C)C1
- viability, T/C (second compound 0.00316 µM, first compound 0.000949 µM): 82%
- viability, T/C (second compound 0.00316 µM, first compound 0.003 µM): 1.8%
- viability, T/C (second compound 0.00316 µM, first compound 0.00949 µM): 0.98%
- viability, T/C (second compound 0.00316 µM, first compound 0.03 µM): 0.95%
- viability, T/C (second compound 0.00316 µM, first compound 0.0949 µM): 0.87%
- viability, T/C (second compound 0.00316 µM, first compound 0.3 µM): 0.85%
- viability, T/C (second compound 0.01 µM, first compound 0.000949 µM): 72.8%
- viability, T/C (second compound 0.01 µM, first compound 0.003 µM): 2.38%
- viability, T/C (second compound 0.01 µM, first compound 0.00949 µM): 0.97%
- viability, T/C (second compound 0.01 µM, first compound 0.03 µM): 1.12%
- viability, T/C (second compound 0.01 µM, first compound 0.0949 µM): 0.92%
- viability, T/C (second compound 0.01 µM, first compound 0.3 µM): 0.91%
- viability, T/C (second compound 0.0316 µM, first compound 0.000949 µM): 70.5%
- viability, T/C (second compound 0.0316 µM, first compound 0.003 µM): 2.51%
- viability, T/C (second compound 0.0316 µM, first compound 0.00949 µM): 1.14%
- viability, T/C (second compound 0.0316 µM, first compound 0.03 µM): 0.91%
- viability, T/C (second compound 0.0316 µM, first compound 0.0949 µM): 0.87%
- viability, T/C (second compound 0.0316 µM, first compound 0.3 µM): 0.86%
- viability, T/C (second compound 0.1 µM, first compound 0.000949 µM): 63.4%
- viability, T/C (second compound 0.1 µM, first compound 0.003 µM): 2.05%
- viability, T/C (second compound 0.1 µM, first compound 0.00949 µM): 1.09%
- viability, T/C (second compound 0.1 µM, first compound 0.03 µM): 0.89%
- viability, T/C (second compound 0.1 µM, first compound 0.0949 µM): 0.99%
- viability, T/C (second compound 0.1 µM, first compound 0.3 µM): 0.86%
- viability, T/C (second compound 0.316 µM, first compound 0.000949 µM): 68.3%
- viability, T/C (second compound 0.316 µM, first compound 0.003 µM): 2.24%
- viability, T/C (second compound 0.316 µM, first compound 0.00949 µM): 1.14%
- viability, T/C (second compound 0.316 µM, first compound 0.03 µM): 1.03%
- viability, T/C (second compound 0.316 µM, first compound 0.0949 µM): 0.87%
- viability, T/C (second compound 0.316 µM, first compound 0.3 µM): 1.11%
- viability, T/C (second compound 1 µM, first compound 0.000949 µM): 58.1%
- viability, T/C (second compound 1 µM, first compound 0.003 µM): 1.43%
- viability, T/C (second compound 1 µM, first compound 0.00949 µM): 1.03%
- viability, T/C (second compound 1 µM, first compound 0.03 µM): 0.98%
- viability, T/C (second compound 1 µM, first compound 0.0949 µM): 0.91%
- viability, T/C (second compound 1 µM, first compound 0.3 µM): 0.97%

- IC50 (second compound 0.00316 µM): 6.89 nM
- IC50 (second compound 0.01 µM): 8.14 nM
- IC50 (second compound 0.0316 µM): 6.88 nM
- IC50 (second compound 0.1 µM): 6.58 nM
- IC50 (second compound 0.316 µM): 6.55 nM
- IC50 (second compound 1 µM): 6.83 nM
Structure (SMILES): Nc1ccn(C2OC(CO)C(O)C2(F)F)c(=O)n1 (centres undefined) + C=CC(=O)N1CCN(c2nc(OCC3CCCN3C)nc3c(F)c(-c4nc(N)cc(C)c4C(F)(F)F)c(Cl)cc23)C(C)C1
- viability, T/C (second compound 0.00316 µM, first compound 0.00316 µM): 108%
- viability, T/C (second compound 0.00316 µM, first compound 0.01 µM): 22.2%
- viability, T/C (second compound 0.00316 µM, first compound 0.0316 µM): 1.32%
- viability, T/C (second compound 0.00316 µM, first compound 0.1 µM): 1.25%
- viability, T/C (second compound 0.00316 µM, first compound 0.316 µM): 1.36%
- viability, T/C (second compound 0.00316 µM, first compound 1 µM): 1.34%
- viability, T/C (second compound 0.01 µM, first compound 0.00316 µM): 113%
- viability, T/C (second compound 0.01 µM, first compound 0.01 µM): 36.4%
- viability, T/C (second compound 0.01 µM, first compound 0.0316 µM): 1.5%
- viability, T/C (second compound 0.01 µM, first compound 0.1 µM): 1.37%
- viability, T/C (second compound 0.01 µM, first compound 0.316 µM): 1.44%
- viability, T/C (second compound 0.01 µM, first compound 1 µM): 1.42%
- viability, T/C (second compound 0.0316 µM, first compound 0.00316 µM): 100%
- viability, T/C (second compound 0.0316 µM, first compound 0.01 µM): 25.8%
- viability, T/C (second compound 0.0316 µM, first compound 0.0316 µM): 1.29%
- viability, T/C (second compound 0.0316 µM, first compound 0.1 µM): 1.37%
- viability, T/C (second compound 0.0316 µM, first compound 0.316 µM): 1.47%
- viability, T/C (second compound 0.0316 µM, first compound 1 µM): 1.19%
- viability, T/C (second compound 0.1 µM, first compound 0.00316 µM): 89.6%
- viability, T/C (second compound 0.1 µM, first compound 0.01 µM): 27.3%
- viability, T/C (second compound 0.1 µM, first compound 0.0316 µM): 1.5%
- viability, T/C (second compound 0.1 µM, first compound 0.1 µM): 1.39%
- viability, T/C (second compound 0.1 µM, first compound 0.316 µM): 1.15%
- viability, T/C (second compound 0.1 µM, first compound 1 µM): 1.1%
- viability, T/C (second compound 0.316 µM, first compound 0.00316 µM): 93.6%
- viability, T/C (second compound 0.316 µM, first compound 0.01 µM): 24.8%
- viability, T/C (second compound 0.316 µM, first compound 0.0316 µM): 1.51%
- viability, T/C (second compound 0.316 µM, first compound 0.1 µM): 1.29%
- viability, T/C (second compound 0.316 µM, first compound 0.316 µM): 1.52%
- viability, T/C (second compound 0.316 µM, first compound 1 µM): 1.25%
- viability, T/C (second compound 1 µM, first compound 0.00316 µM): 93.5%
- viability, T/C (second compound 1 µM, first compound 0.01 µM): 28.4%
- viability, T/C (second compound 1 µM, first compound 0.0316 µM): 1.78%
- viability, T/C (second compound 1 µM, first compound 0.1 µM): 1.63%
- viability, T/C (second compound 1 µM, first compound 0.316 µM): 1.74%
- viability, T/C (second compound 1 µM, first compound 1 µM): 1.61%
